Source: the supplement of paper PMC10307832

Key:
Experiment in all cases: relative viability (nuclei count vs DMSO), 5 days (fraction); higher = more cells survive
Dabrafenib + Pemetrexed = compound: CC(C)(C)c1nc(-c2cccc(NS(=O)(=O)c3c(F)cccc3F)c2F)c(-c2ccnc(N)n2)s1 [Dabrafenib] + Nc1nc2[nH]cc(CCc3ccc(C(=O)N[C@@H](CCC(=O)O)C(=O)O)cc3)c2c(=O)[nH]1 [Pemetrexed] (partner 0.2 µM)
In short: (§1)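 The day after seeding in 1536-well plates, lung cancer cell lines were treated by pin tool with a single drug, or with a fixed anchor-drug dose together with five library-drug doses (not always all listed) in √10 steps. After 5 days, a combined fix-and-stain solution (final 0.05% Triton X-100, 1% formaldehyde, 1 ug/ml Hoechst) was added. Nuclei counted on 4× images gave relative viability as treated counts over vehicle counts, reported as the median of duplicate plates.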

VX-702 + Phenformin = compound: NC(=O)c1ccc(N(C(N)=O)c2c(F)cccc2F)nc1-c1ccc(F)cc1F [VX-702] + N=C(N)NC(=N)NCCc1ccccc1 [Phenformin] (partner 250 µM)
In short: as §1

Dabrafenib + Tozasertib = compound: CC(C)(C)c1nc(-c2cccc(NS(=O)(=O)c3c(F)cccc3F)c2F)c(-c2ccnc(N)n2)s1 [Dabrafenib] + Cc1cc(Nc2cc(N3CCN(C)CC3)nc(Sc3ccc(NC(=O)C4CC4)cc3)n2)n[nH]1 [Tozasertib] (partner 0.1 µM)
In short: as §1

Dabrafenib + AZD7762 = compound: CC(C)(C)c1nc(-c2cccc(NS(=O)(=O)c3c(F)cccc3F)c2F)c(-c2ccnc(N)n2)s1 [Dabrafenib] + NC(=O)Nc1cc(-c2cccc(F)c2)sc1C(=O)N[C@H]1CCCNC1 [AZD7762] (partner 0.2 µM)
In short: as §1

Cell Line | relative viability (Dabrafenib + Pemetrexed; first compound 0.003 µM) | relative viability (Dabrafenib + Pemetrexed; first compound 0.009487 µM) | relative viability (Dabrafenib + Pemetrexed; first compound 0.03 µM) | relative viability (Dabrafenib + Pemetrexed; first compound 0.09487 µM) | relative viability (Dabrafenib + Pemetrexed; first compound 0.3 µM) | relative viability (VX-702 + Phenformin; first compound 0.02 µM) | relative viability (VX-702 + Phenformin; first compound 0.2 µM) | relative viability (VX-702 + Phenformin; first compound 0.6325 µM) | relative viability (VX-702 + Phenformin; first compound 2 µM) | relative viability (Dabrafenib + Tozasertib; first compound 0.003 µM) | relative viability (Dabrafenib + Tozasertib; first compound 0.009487 µM) | relative viability (Dabrafenib + Tozasertib; first compound 0.03 µM) | relative viability (Dabrafenib + Tozasertib; first compound 0.09487 µM) | relative viability (Dabrafenib + Tozasertib; first compound 0.3 µM) | relative viability (Dabrafenib + AZD7762; first compound 0.003 µM) | relative viability (Dabrafenib + AZD7762; first compound 0.009487 µM) | relative viability (Dabrafenib + AZD7762; first compound 0.03 µM) | relative viability (Dabrafenib + AZD7762; first compound 0.09487 µM) | relative viability (Dabrafenib + AZD7762; first compound 0.3 µM)
HOP-62 | 0.253 | 0.255 | 0.286 | 0.273 | 0.25 | 0.809 | 0.656 | 0.698 | 0.708 | 0.422 | 0.39 | 0.331 | 0.362 | 0.399 | 0.088 | 0.449 | 0.493 | 0.424 | 0.452
LC-2-ad | 0.271 | 0.283 | 0.25 | 0.269 | 0.286 | 0.574 | 0.647 | 0.551 | 0.612 |  | 0.453 | 0.422 | 0.447 | 0.429 | 0.654 | 0.945 | 0.87 | 0.92 | 1.07
LCLC-97TM1 |  | 0.198 | 0.198 | 0.124 | 0.139 | 0.439 | 0.434 | 0.43 | 0.482 | 0.218 | 0.209 | 0.287 | 0.249 | 0.186 |  | 0.239 | 0.25 | 0.129 | 0.224
LCLC-103H | 0.473 | 0.455 | 0.532 | 0.42 | 0.4 | 0.344 | 0.344 | 0.316 | 0.325 | 0.401 | 0.514 | 0.424 | 0.44 | 0.5 | 0.703 | 0.834 | 0.701 | 0.794 | 0.761
LK-2 | 0.249 | 0.239 |  | 0.253 | 0.301 | 0.38 | 0.478 | 0.354 | 0.387 | 0.182 | 0.174 |  | 0.174 | 0.152 | 0.125 | 0.449 |  | 0.433 | 0.467
LOU-NH91 |  | 0.34 | 0.403 | 0.409 | 0.409 | 0.796 | 0.819 | 0.807 | 0.504 | 0.704 | 0.78 | 0.679 | 0.698 | 0.761 |  | 0.768 | 0.734 | 0.725 | 0.827
LU99A | 0.25 | 0.192 | 0.181 | 0.161 | 0.183 | 0.957 | 0.851 | 0.792 | 0.643 | 0.258 | 0.287 | 0.255 | 0.277 | 0.306 | 0.55 | 0.401 | 0.368 | 0.352 | 0.261
NCI-H520 | 0.697 | 0.6 | 0.625 | 0.669 | 0.652 | 0.67 | 0.648 | 0.525 | 0.535 | 0.431 | 0.486 |  | 0.417 | 0.408 |  |  |  |  | 
NCI-H661 | 0.942 | 0.934 | 0.876 | 0.931 | 0.933 | 0.296 | 0.329 | 0.298 | 0.299 | 0.344 | 0.364 | 0.372 | 0.38 | 0.352 |  |  |  |  | 
NCI-H727 |  |  |  |  |  | 0.618 | 0.607 | 0.568 | 0.499 |  | 0.754 | 0.654 | 0.667 | 0.793 | 0.472 | 0.459 |  | 0.492 | 0.669
NCI-H1563 | 0.667 | 0.836 | 0.591 | 0.822 | 0.744 | 0.702 | 0.684 | 0.694 | 0.592 |  |  |  |  |  |  |  |  |  | 
NCI-H1623 |  |  |  |  |  | 0.583 | 0.469 | 0.917 | 0.535 |  | 0.466 | 0.431 | 0.447 | 0.524 |  |  |  |  | 
NCI-H1648 | 0.746 | 0.781 |  | 0.654 | 0.738 |  |  |  |  | 0.641 | 0.463 | 0.685 | 0.396 | 0.376 | 0.638 | 0.797 |  | 0.611 | 0.802
NCI-H1650 | 0.364 | 0.391 | 0.389 | 0.389 | 0.419 | 0.542 | 0.625 | 0.411 | 0.468 | 0.524 | 0.563 | 0.408 | 0.419 | 0.384 |  |  |  |  | 
NCI-H1703 |  |  |  |  |  |  |  |  |  |  |  |  |  |  |  |  |  |  | 0.136
NCI-H1792 |  | 1.03 | 0.622 | 0.723 | 0.525 | 0.314 | 0.303 | 0.45 | 0.237 |  |  |  |  |  |  | 0.723 | 0.434 | 0.34 | 0.485
NCI-H2009 | 0.997 | 0.956 | 0.818 | 0.761 | 0.701 | 0.572 | 0.56 | 0.577 | 0.617 | 0.703 | 0.759 | 0.672 | 0.649 | 0.62 |  |  |  |  | 
NCI-H2023 | 0.229 | 0.247 | 0.207 | 0.211 | 0.255 | 0.407 | 0.469 | 0.413 | 0.559 | 0.376 | 0.382 | 0.35 | 0.321 | 0.356 |  |  |  |  | 
NCI-H2228 | 0.342 | 0.415 | 0.357 | 0.332 | 0.321 | 0.48 | 0.354 | 0.324 | 0.34 |  | 0.246 | 0.248 | 0.236 | 0.244 |  |  |  |  | 
SK-LU-1 |  | 1.06 | 0.898 | 0.865 | 0.715 | 0.636 | 0.508 | 0.524 | 0.531 |  | 0.365 | 0.255 | 0.311 | 0.332 |  |  |  |  | 
SK-MES-1 |  | 0.952 | 0.915 | 0.86 | 0.742 | 0.678 | 0.663 | 0.725 | 0.73 | 0.863 | 0.874 | 0.861 | 0.811 | 0.565 |  |  |  |  | 
SW 1573 | 0.79 | 0.9 | 0.792 | 0.777 | 0.782 | 0.364 | 0.261 | 0.282 | 0.327 | 0.284 | 0.233 | 0.191 | 0.19 | 0.241 |  |  |  |  | 
UMC-11 | 0.761 | 0.806 | 0.727 | 0.822 | 0.871 | 0.34 | 0.346 | 0.301 | 0.363 | 0.189 | 0.202 | 0.19 | 0.197 | 0.231 |  |  |  |  | 
